According to US20240051952A1, “HMOX1 INDUCERS” (Mitobridge Inc., priority 2019, published 2024):

Tested on: Human Heme Oxygenase-1 (HMOX-1)
Assay: ELISA assay to measure human heme oxygenase-1 (HMOX-1) in HepG2 lysate
Format: cell-based
Settings: fold change of human HMOX1 protein levels relative to DMSO control, HepG2
Method: Example 143. ELISA Assay to Measure Human Heme Oxygenase-1 (HMOX-1) in HepG2 lysate
Reagents and Technical Notes:
ELISA capture antibody, standard HO-1, detection antibody and streptavidin HRP were supplied in the DuoSet IC Human total HO-1 ELISA from R&D systems (DYC3776-2). The substrate cocktail was KPL LumiGLO reserve Chemiluminescent Substrate (54-71-00). PBS was Corning Cellgro Cell Culture (21-040-CV). 10×PBS+0.05% tween20 (PBST) was from KPL.
All incubations of the plate were at room temperature (20° C.) in a closed drawer.
The ELISA plate was processed manually. All loadings were with a multichannel pipet. Plates were emptied by shaking into the sink and tapping onto paper towels to remove any remaining reagent. Plate washing was accomplished by loading all wells with PBS+0.05% tween20 (PBST) using a squirt bottle, shaking the PBST out and tapping the plate onto paper towels.
Preparation of the ELISA Plate: • 1. anti-HO-1 capture antibody was 1440 μg/ml after reconstitution in PBS. This antibody was diluted to 8 μg/ml in PBS and 50 μl per well was added to a 384 well greiner “lumitrac 200” plate. Incubated overnight. • 2. The plate was emptied and 100 μl PBS+1% BSA added to all wells. Incubated 90 minutes at room temperature.
Preparation of HepG2 Lysate: • 1. Cells were cultured in a 96-well tissue culture plate washed with PBS and then the plate frozen at −70° C. overnight. Plates were allowed to warm to ice temperature in an ice bucket. 20 μl of PBS, 0.5% Triton X100, 1 mM EDTA with 1×HALT™ protease inhibitors was added to each well and the plates incubated on ice for 1 hour. • 2. The lysates were frozen at −20° C. overnight.
Measurement of HMOX1 (“HO-1”) • 1. In a polypropylene 384 well plate, human HO-1(after reconstitution in PBS+0.5% Triton+1 mM EDTA) was serially diluted from 20 ng/ml 2-fold in PBS+0.5% triton-X100, 1 mM EDTA to make a 12-point standard curve including a zero point. • 2. In a polypropylene 96 well plate, HepG2 lysate was diluted 1 to 20 in Diluent #4 from DUOSET kit in which the assay standard is also diluted. • 3. The PBS+1% BSA was emptied from the ELISA plate and 30 μl of all samples and standards were added (duplicates recommended). The plate was incubated 90 minutes. • 4. Emptied plate and washed 4 times with PBST. • 5. Diluted HO-1 detection antibody to 200 ng/ml in PBS+1% BSA and added 30 μl to all wells. Incubated 90 minutes. • 6. Emptied plate and washed 4 times with PBST. • 7. Added 30 μl streptavidin HRP at 1/200 in PBS+1% BSA (stock streptavidin concentration not specified) to all wells. Incubated 30 minutes. • 8. Emptied plate and washed 4 times with PBST. • 9. Diluted Lumiglo reserve reagent two parts buffer to one part lumiglo substrate. Added 30 μl to all wells. Incubated 5 minutes. • 10. Measured chemiluminescence on spectramax M5 using 150 ms integration.
Table 1 below lists EC50 and fold changes of human HMOX1 protein levels relative to DMSO control upon treatment with representative compounds.

| SMILES | Maximum Fold induction |
| --- | --- |
| COCCOc1ccc2nc(Nc3nc4cc(C(=O)NCCO)ccc4n3C)oc2c1 [Example 57, N-(2-hydroxyethyl)-2-((6-(2-methoxyethoxy)benzo[d]oxazol-2-yl)amino)-1-methyl-1H-benzo[d]imidazole-5-carboxamide] | 34-40 |
| COCCOc1ccc2nc(Nc3nc4cc(C(=O)NCCOCCO)ccc4n3C)oc2c1 [Example 58, N-(2-(2-hydroxyethoxy)ethyl)-2-((6-(2-methoxyethoxy)benzo[d]oxazol-2-yl)amino)-1-methyl-1H-benzo[d]imidazole-5-carboxamide] | 41-60 |
| CC(C)c1ccc2nc(Nc3nc4cc(C(=O)O)ccc4n3C)oc2c1 [Example 59, 2-((6-isopropylbenzo[d]oxazol-2-yl)amino)-1-methyl-1H-benzo[d]imidazole-5-carboxylic acid] | 30 |
| COCCNC(=O)c1ccc2c(c1)nc(Nc1nc3ccc(C(C)C)cc3o1)n2C [Example 60, 2-((6-isopropylbenzo[d]oxazol-2-yl)amino)-N-(2-methoxyethyl)-1-methyl-1H-benzo[d]imidazole-5-carboxamide] | 42-56 |
| CC(C)c1ccc2nc(Nc3nc4cc(C(=O)NCCO)ccc4n3C)oc2c1 [Example 61, N-(2-hydroxyethyl)-2-((6-isopropylbenzo[d]oxazol-2-yl)amino)-1-methyl-1H-benzo[d]imidazole-5-carboxamide] | 60 |
| Cn1c(Nc2nc3ccc(OC(F)F)cc3o2)nc2cc(C(=O)O)ccc21 [Example 62, 2-((6-(difluoromethoxy)benzo[d]oxazol-2-yl)amino)-1-methyl-1H-benzo[d]imidazole-5-carboxylic acid] | 15-24 |
| Cn1c(Nc2nc3ccc(OC(F)F)cc3o2)nc2cc(C(=O)NCCO)ccc21 [Example 64, 2-((6-(difluoromethoxy)benzo[d]oxazol-2-yl)amino)-N-(2-hydroxyethyl)-1-methyl-1H-benzo[d]imidazole-5-carboxamide] | 11-18 |
| COCCNC(=O)c1ccc2c(c1)nc(Nc1nc3cc(C)ccc3o1)n2C [Example 65, N-(2-methoxyethyl)-1-methyl-2-((5-methylbenzo[d]oxazol-2-yl)amino)-1H-benzo[d]imidazole-5-carboxamide] | 15-42 |
| Cn1c(Nc2nc3cc(F)ccc3o2)nc2cc(C(=O)O)ccc21 [Example 66, 2-((5-fluorobenzo[d]oxazol-2-yl)amino)-1-methyl-1H-benzo[d]imidazole-5-carboxylic acid] | 19-22 |
| COCCNC(=O)c1ccc2c(c1)nc(Nc1nc3cc(F)ccc3o1)n2C [Example 67, 2-((5-fluorobenzo[d]oxazol-2-yl)amino)-N-(2-methoxyethyl)-1-methyl-1H-benzo[d]imidazole-5-carboxamide] | 18-56 |
| Cn1c(Nc2nc3ccc(F)cc3o2)nc2cc(C(=O)O)ccc21 [Example 68, 2-((6-fluorobenzo[d]oxazol-2-yl)amino)-1-methyl-1H-benzo[d]imidazole-5-carboxylic acid] | 16-21 |
| Cn1c(Nc2nc3ccc(OC(F)(F)F)cc3o2)nc2cc(C(=O)O)c(F)cc21 [Example 70, 6-fluoro-1-methyl-2-((6-(trifluoromethoxy)benzo[d]oxazol-2-yl)amino)-1H-benzo[d]imidazole-5-carboxylic acid] | 8-11 |
| Cn1c(Nc2nc3ccccc3o2)nc2cc(C(=O)NCCOCCO)c(F)cc21 [Example 72, 2-(benzo[d]oxazol-2-ylamino)-6-fluoro-N-(2-(2-hydroxyethoxy)ethyl)-1-methyl-1H-benzo[d]imidazole-5-carboxamide] | 31-72 |
| Cn1c(Nc2nc3cc(F)ccc3[nH]2)nc2cc(C(=O)O)ccc21 [Example 73, 2-((5-fluoro-1H-benzo[d]imidazol-2-yl)amino)-1-methyl-1H-benzo[d]imidazole-5-carboxylic acid] | 8-12 |
| CN(C)CCn1c(Nc2nc3ccc(OC(F)(F)F)cc3o2)nc2cc(C(=O)O)ccc21 [Example 74, 1-(2-(dimethylamino)ethyl)-2-((6-(trifluoromethoxy)benzo[d]oxazol-2-yl)amino)-1H-benzo[d]imidazole-5-carboxylic acid] | 17-28 |

Results, then the compound that gave them:

| Maximum Fold induction | SMILES |
| --- | --- |
| 11-15 | COCCNC(=O)c1ccc2c(c1)nc(Nc1nc3ccc(OC(F)F)cc3o1)n2C [Example 63, 2-((6-(difluoromethoxy)benzo[d]oxazol-2-yl)amino)-N-(2-methoxyethyl)-1-methyl-1H-benzo[d]imidazole-5-carboxamide] |
| 13-36 | COCCNC(=O)c1ccc2c(c1)nc(Nc1nc3ccc(F)cc3o1)n2C [Example 69, 2-((6-fluorobenzo[d]oxazol-2-yl)amino)-N-(2-methoxyethyl)-1-methyl-1H-benzo[d]imidazole-5-carboxamide] |
| 8-12 | COCCNC(=O)c1cc2nc(Nc3nc4ccc(OC(F)(F)F)cc4o3)n(C)c2cc1F [Example 71, 6-fluoro-N-(2-methoxyethyl)-1-methyl-2-((6-(trifluoromethoxy)benzo[d]oxazol-2-yl)amino)-1H-benzo[d]imidazole-5-carboxamide] |
| 15-25 | COCCn1c(Nc2nc3cc(OC(F)(F)F)ccc3[nH]2)nc2cc(C(=O)O)ccc21 [Example 75, 1-(2-methoxyethyl)-2-((5-(trifluoromethoxy)-1H-benzo[d]imidazol-2-yl)amino)-1H-benzo[d]imidazole-5-carboxylic acid] |
| 18-20 | COCCNC(=O)c1ccc2c(c1)nc(Nc1nc3cc(OC(F)(F)F)ccc3[nH]1)n2CCOC [Example 76, N,1-bis(2-methoxyethyl)-2-((5-(trifluoromethoxy)-1H-benzo[d]imidazol-2-yl)amino)-1H-benzo[d]imidazole-5-carboxamide] |
| 27-28 | COCCn1c(Nc2nc3ccc(OC(F)(F)F)cc3o2)nc2cc(C(=O)O)ccc21 [Example 77, 1-(2-methoxyethyl)-2-((6-(trifluoromethoxy)benzo[d]oxazol-2-yl)amino)-1H-benzo[d]imidazole-5-carboxylic acid] |
| 21-23 | COCCNC(=O)c1ccc2c(c1)nc(Nc1nc3ccc(OC(F)(F)F)cc3o1)n2CCOC [Example 78, N,1-bis(2-methoxyethyl)-2-((6-(trifluoromethoxy)benzo[d]oxazol-2-yl)amino)-1H-benzo[d]imidazole-5-carboxamide] |
| 27-51 | O=C(O)c1ccc2c(c1)nc(Nc1nc3ccc(OC(F)(F)F)cc3o1)n2C1CCOCC1 [Example 79, 1-(tetrahydro-2H-pyran-4-yl)-2-((6-(trifluoromethoxy)benzo[d]oxazol-2-yl)amino)-1H-benzo[d]imidazole-5-carboxylic acid] |
| 22-23 | COCCNC(=O)c1ccc2c(c1)nc(Nc1nc3ccc(OC(F)(F)F)cc3o1)n2C1CCOCC1 [Example 80, N-(2-methoxyethyl)-1-(tetrahydro-2H-pyran-4-yl)-2-((6-(trifluoromethoxy)benzo[d]oxazol-2-yl)amino)-1H-benzo[d]imidazole-5-carboxamide] |
| 19-30 | COCCNC(=O)c1ccc2c(c1)nc(Nc1nc3cc(OC(F)(F)F)ccc3[nH]1)n2C1CCOCC1 [Example 81, N-(2-methoxyethyl)-1-(tetrahydro-2H-pyran-4-yl)-2-((5-(trifluoromethoxy)-1H-benzo[d]imidazol-2-yl)amino)-1H-benzo[d]imidazole-5-carboxamide] |
